These results are taken from patent publication EP4778921A1, “SALT FORM AND CRYSTAL FORM OF NITROGEN-CONTAINING HETEROCYCLIC DERIVATIVE INHIBITOR, AND PREPARATION METHOD THEREFOR AND USE THEREOF” (Shanghai Hansoh Biomedical Co., Ltd., priority 2023, dated 2025).

Structures can show the parent of a compound that is named as a salt.

Data set [1] concerns Ba/F3 EGFR Del19/C797S. The data set can be described thus: Cell proliferation inhibition experiment (Cell Titer-Glo). In kind it is cell-based. As to conditions: Mus musculus, 72 hours, read-out: Ba/F3 EGFR Dell9/C797S IC50. The method, then: Experimental objective: The objective of this test example is to test the inhibitory activity of compounds on the proliferation of different EGFR C797S drug-resistant mutant cell lines Ba/F3 EGFR Del19/T790M/C797S, Ba/F3 EGFR L858R/T790M/C797S, and Ba/F3 EGFR Del19/C797S. Experimental instruments: Centrifuge (Eppendorf 5810R); Microplate reader (BioTek Synergy H1) Pipette (Eppendorf or Rainin); Carbon dioxide incubator (Thermo 311) Cell counter (Life Countess II) Experimental reagents and consumables: • Ba/F3 EGFR Del19/T790M/C797S cells were purchased from KYinno Biotechnology Co., Ltd.; • Ba/F3 EGFR Del19/C797S cells were purchased from CoBioer Biosciences Co., Ltd.; • Ba/F3 EGFR L858R/T790M/C797S cells were purchased from CoBioer Biosciences Co., Ltd.; • Cell Titer-Glo was purchased from Promega, with a catalogue number of G7573; • RPMI 1640 was purchased from Gibco, with a catalogue number of 22400089; • FBS was purchased from Gibco, with a catalogue number of 10091148; • cell culture plates were purchased from Corning, with a catalogue number of 3610. Experimental methods: The inhibitory activity of the compound on the proliferation of different EGFR C797S drug-resistant mutant cell lines was detected using the Cell Titer-Glo method. The different cell lines were cultured in RPMI 1640 complete culture medium containing 10% FBS under conditions of 37°C and 5% CO2, the cells were collected by centrifugation when growing to a certain density, and adjusted to appropriate cell density after counting, the cells were spread on a white 96-well plate at 90 µL/well, and cultured in a 37°C, 5% CO2 incubator overnight, prepared compound solutions at different concentrations were added at 10 µL/well, corresponding solvent controls were set, and all wells were cultured in a 37°C, 5% CO2 incubator for 72 hours, 50 µL of CellTiter-Glo solution was added to each well, shook and mixed evenly, and incubated in the dark for 10 minutes, and a BioTek Synergy H1 microplate reader was used for reading. Experimental data processing method: The luminescence signal value was used to calculate the inhibition rate. Graphpad Prism software was used to fit the concentration and inhibition rate to a nonlinear regression curve, so as to obtain the IC50 value, as shown in the Table below for details.

Data set [2] can be described thus: Solid stability experiment of crystal forms of salts (7 and 14 days). In kind it is physicochemical. As for the experimental part: • 3.1 Experimental objective: To investigate the physical and chemical stability for different crystal forms of salts under the conditions of a high temperature of 60°C (GW), a high humidity of RH = 92.5% (GS), and both a high temperature of 50°C and a high humidity of RH = 75% (JS) and provide a basis for the screening of the crystal forms of salts and the storage of the crystal forms of salts of the compound. • 3.2 Experimental scheme: Different crystal forms of salts (crystal form A of hydrochloride, crystal form A of sulphate, crystal form A of citrate, crystal form A of oxalate, crystal form A of maleate and crystal form A of salicylate) were accurately weighed, and the stability of the crystal forms was investigated for 7 and 14 days under the three conditions of 60°C (GW), 92.5% RH (room temperature, GS), and 50°C/75% RH (JS). […] Therefore, they can well meet the requirements of subsequent drug development. […] Therefore, they both satisfy the requirements for subsequent drug storage.

The nature of data set [3]: Solubility experiments in different media, crystal forms of salts. In kind it is physicochemical. Also noted: thermodynamic solubility FaSSIF / thermodynamic solubility FaSSGF / thermodynamic solubility FeSSIF: unit not given here. As to conditions: about 2 mg suspended for 24 hours, 37°C, HPLC, external standard method; for thermodynamic solubility FaSSGF: FaSSGF (artificial simulated gastric fluid); for thermodynamic solubility FaSSIF: FaSSIF (fasted-state artificial simulated intestinal fluid); for thermodynamic solubility FeSSIF: FeSSIF (fed-state artificial simulated intestinal fluid). From the text: 4.1 Experimental objective: The solubility of the crystal form A of phosphate, crystal form A of hydrochloride, crystal form A of sulphate, crystal form A of citrate, crystal form A of oxalate, crystal form A of maleate and crystal form A of salicylate in media such as artificial simulated gastric fluid (FaSSGF), fasted-state artificial simulated intestinal fluid (FaSSIF), and fed-state artificial simulated intestinal fluid (FeSSIF) was compared to provide a basis for the evaluation of the potential of the crystal forms of salts being manufactured as a drug. […]

Data set [4] in a line: Hygroscopicity experiment (crystal forms of salts and crystal form A of free base). As to conditions: for weight gain after moisture absorption / hygroscopicity: RH 80%; for hygroscopicity: result in words; for crystal form transformation (XRPD pattern): after 1 cycle of moisture absorption and desorption, 0-95% relative humidity. In kind it is physicochemical. From the text: • 2.1 Experimental objective: The hygroscopicity of different crystal forms of salts of the compound was investigated under various relative humidity conditions to provide a basis for screening and storage of the crystal forms of salts of the compound. • 2.2 Experimental scheme: The crystal forms of salts of the compound were placed in saturated water vapor at different relative humidities to reach a dynamic equilibrium between the compound and the water vapor.
3.1 Experimental objective: The hygroscopicity of crystal form A of free base of the compound was investigated under various relative humidity conditions to provide a basis for screening and storage of the crystal forms of the compound.
3.2 Experimental scheme: The crystal form A of free base of the compound was placed in saturated water vapor at different relative humidities to reach a dynamic equilibrium between the compound and the water vapor. The percentage weight gain of the compound due to moisture absorption was calculated after the equilibrium.

Where [5] appears, read: high temperature, high humidity, and both high temperature and high humidity conditions, 7 and 14 days.
[6] abbreviates: placed for a period of time under various conditions.
Setting [7] is: high temperature and high humidity conditions, 7 and 14 days.

As for `CC(C)c1c(F)cc(N2CC(NS(C)(=O)=O)C2)c2cnc(Nc3ccnc(-c4cn(C)nc4Cl)n3)cc12` [Example 13, N-(1-(3-((2-(3-chloro-1-methyl-1H-pyrazol-4-yl)pyrimidin-4-yl)amino)-6-fluoro-5-isopropylisoquinolin-8-yl)azetidin-3-yl)methanesulphonamide], the IC50 in data set [1] was determined as 19 nM.

For `CC(C)c1c(F)cc(N2C[C@H](N(C)S(C)(=O)=O)[C@H]2C)c2cnc(Nc3ccnc(-c4cn(C)nc4Cl)n3)cc12` [crystal form A of citrate, N-((2R,3S)-1-(3-((2-(3-chloro-1-methyl-1H-pyrazol-4-yl)pyrimidin-4-yl)amino)-6-fluoro-5-isopropylisoquinolin-8-yl)-2-methylazetidin-3-yl)-N-methylmethanesulphonamide], the “stability (impurity increase)” value in data set [2] (setting [5]) is listed as “relatively stable”. For the same molecule, in data set [3], the “thermodynamic solubility FaSSGF” value was 0.053, the “thermodynamic solubility FaSSIF” value is 0.159 and the “thermodynamic solubility FeSSIF” value is greater than 0.870. Also, in data set [4], the “weight gain after moisture absorption” value was found to be 0.573%, the hygroscopicity entry is “weak hygroscopicity” and the “crystal form transformation (XRPD pattern)” value (shortened to “crystal form transformation”) is “no crystal form transformation occurred”.

With `Cc1nn(C)cc1-c1nccc(Nc2cc3c(C(C)C)c(F)cc(N4CC(N(C)S(C)(=O)=O)C4)c3cn2)n1` [Example 6, N-(1-(3-((2-(1,3-dimethyl-1H-pyrazol-4-yl)pyrimidin-4-yl)amino)-6-fluoro-5-isopropylisoquinolin-8-yl)azetidin-3-yl)-N-methylmethanesulphonamide], the IC50 in data set [1] came to 22 nM.

For `CC(C)c1c(F)cc(N2CC(N(C)S(C)(=O)=O)C2)c2cnc(Nc3ccnc(-c4cn(C)nc4Cl)n3)cc12` [Example 3, N-(1-(3-((2-(3-chloro-1-methyl-1H-pyrazol-4-yl)pyrimidin-4-yl)amino)-6-fluoro-5-isopropylisoquinolin-8-yl)azetidin-3-yl)-N-methylmethanesulphonamide], the IC50 in data set [1] was found to be 14 nM.

With `CC(C)c1c(F)cc(N2C[C@H](N(C)S(C)(=O)=O)[C@H]2C)c2cnc(Nc3ccnc(-c4cn(C)nc4Cl)n3)cc12` [crystal form A of sulphate, N-((2R,3S)-1-(3-((2-(3-chloro-1-methyl-1H-pyrazol-4-yl)pyrimidin-4-yl)amino)-6-fluoro-5-isopropylisoquinolin-8-yl)-2-methylazetidin-3-yl)-N-methylmethanesulphonamide], in data set [2] (setting [6]), the “stability (impurity increase)” value is recorded as “remain stable”. Further, in data set [3], the “thermodynamic solubility FaSSGF” value was 0.096, the “thermodynamic solubility FaSSIF” value is given as 0.034 and the “thermodynamic solubility FeSSIF” value is recorded as 1.114. In data set [4], the “weight gain after moisture absorption” value turned out to be 4.616% and the “crystal form transformation” value is “no crystal form transformation occurred”.

With `CC(C)c1c(F)cc(N2C[C@H](N(C)S(C)(=O)=O)[C@H]2C)c2cnc(Nc3ccnc(-c4cn(C)nc4Cl)n3)cc12` [crystal form A of hydrochloride, N-((2R,3S)-1-(3-((2-(3-chloro-1-methyl-1H-pyrazol-4-yl)pyrimidin-4-yl)amino)-6-fluoro-5-isopropylisoquinolin-8-yl)-2-methylazetidin-3-yl)-N-methylmethanesulphonamide], the “stability (impurity increase)” value in data set [2] (setting [6]) is given as “remain stable”. Besides, in data set [3], the “thermodynamic solubility FaSSGF” value is 0.072, the “thermodynamic solubility FaSSIF” value is 0.214 and the “thermodynamic solubility FeSSIF” value was greater than 1.016.

Turning to `CC(C)c1c(F)cc(N2C[C@H](N(C)S(C)(=O)=O)[C@H]2C)c2cnc(Nc3ccnc(-c4cn(C)nc4Cl)n3)cc12` [crystal form A of oxalate, N-((2R,3S)-1-(3-((2-(3-chloro-1-methyl-1H-pyrazol-4-yl)pyrimidin-4-yl)amino)-6-fluoro-5-isopropylisoquinolin-8-yl)-2-methylazetidin-3-yl)-N-methylmethanesulphonamide], the “stability (impurity increase)” value in data set [2] (setting [5]) is “relatively stable”. For the same molecule, in data set [3], the “thermodynamic solubility FaSSGF” value is listed as 0.070, the “thermodynamic solubility FaSSIF” value is reported as 0.035 and the “thermodynamic solubility FeSSIF” value is 1.228. Also, in data set [4], the “weight gain after moisture absorption” value was determined as 1.707%, the hygroscopicity entry is on record as “weak hygroscopicity” and the “crystal form transformation” value is “no crystal form transformation occurred”.

For `CC(C)c1c(F)cc(N2C[C@H](N(C)S(C)(=O)=O)[C@H]2C)c2cnc(Nc3ccnc(-c4cn(C)nc4Cl)n3)cc12` [crystal form B of hydrochloride, N-((2R,3S)-1-(3-((2-(3-chloro-1-methyl-1H-pyrazol-4-yl)pyrimidin-4-yl)amino)-6-fluoro-5-isopropylisoquinolin-8-yl)-2-methylazetidin-3-yl)-N-methylmethanesulphonamide], in data set [4], the “weight gain after moisture absorption” value worked out at 1.157%, the hygroscopicity entry was “weak hygroscopicity” and the “crystal form transformation” value was “no crystal form transformation occurred”.

Turning to `CC(C)c1c(F)cc(N2C[C@H](N(C)S(C)(=O)=O)[C@H]2C)c2cnc(Nc3ccnc(-c4cn(C)nc4Cl)n3)cc12` [crystal form A of maleate, N-((2R,3S)-1-(3-((2-(3-chloro-1-methyl-1H-pyrazol-4-yl)pyrimidin-4-yl)amino)-6-fluoro-5-isopropylisoquinolin-8-yl)-2-methylazetidin-3-yl)-N-methylmethanesulphonamide], the “stability (impurity increase)” value in data set [2] (setting [7]) is on record as “relatively stable”. For the same molecule, in data set [3], the “thermodynamic solubility FaSSGF” value is on record as 0.075, the “thermodynamic solubility FaSSIF” value is 0.029 and the “thermodynamic solubility FeSSIF” value was greater than 1.020. In addition, in data set [4], the “weight gain after moisture absorption” value came out at 2.050% and the “crystal form transformation” value was “no crystal form transformation occurred”.

Consider `CC(C)c1c(F)cc(N2C[C@H](N(C)S(C)(=O)=O)[C@H]2C)c2cnc(Nc3ccnc(-c4cn(C)nc4Cl)n3)cc12` [crystal form A of salicylate, N-((2R,3S)-1-(3-((2-(3-chloro-1-methyl-1H-pyrazol-4-yl)pyrimidin-4-yl)amino)-6-fluoro-5-isopropylisoquinolin-8-yl)-2-methylazetidin-3-yl)-N-methylmethanesulphonamide], for which, in data set [2] (setting [7]), the “stability (impurity increase)” value is reported as “relatively stable”. Also, in data set [3], the “thermodynamic solubility FaSSGF” value was 0.020, the “thermodynamic solubility FaSSIF” value is given as 0.101 and the “thermodynamic solubility FeSSIF” value is 0.672. Moreover, in data set [4], the “weight gain after moisture absorption” value came out at 0.1374%, the hygroscopicity result is recorded as “weak hygroscopicity” and the “crystal form transformation” value is listed as “no crystal form transformation occurred”.
